# In patent publication US20090088377A1, “CYSTEIC ACID DERIVATIVES OF ANTI-VIRAL PEPTIDES” (priority 2007, published 2009):
# Key:
# HIV-1 IIIB = assay: Anti-HIV efficacy evaluation in fresh human PBMCs (albumin conjugates vs original peptides); assay type: cell-based; conditions: NA = IC50 not achieved
# Procedure: HIV-1 IIIB was obtained through the AIDS Research and Reference Reagent Program, Division of AIDS, NIAID, NIH courtesy of Dr. Robert C. […] Fresh human peripheral blood mononuclear cells (PBMCs), seronegative for HIV and HBV, were isolated from blood of screened donors (Biological Specialty Corporation; Colmar, Pa.) using Lymphocyte Separation Medium (LSM; Cellgro® by Mediatech, Inc.; density 1.078+/−0.002 g/ml) following the manufacturer's instructions. Cells were stimulated by incubation in 4 μg/mL Phytohemagglutinin (PHA; Sigma) for 48-72 hours. Mitogenic stimulation was maintained by the addition of 20 U/mL recombinant human IL-2 (R&D Systems, Inc) to the culture medium. PHA-stimulated PBMCs from at least two donors were pooled, diluted in fresh medium and added to 96-well plates at 5×10^4 cells/well. Cells were infected (final MOI≅0.1) in the presence of 9 different concentrations of test compounds (triplicate wells/concentration) and incubated for 7 days. […] Following removal of supernatant samples, compound cytotoxicity was measured by the addition of 3-(4,5-dimethylthiazol-2-yl)-5-(3-carboxymethoxyphenyl)-2-(4-sulfophenyl)-2H-tetrazolium (MTS; CellTiter 96 Reagent, Promega) following the manufacturer's instructions. […] AZT (nucleoside reverse transcriptase inhibitor) was used as the assay control compound.
# [1] = target: HIV-1 transmembrane glycoprotein gp41 (strain HIV-1 IIIB) (HIV-1 strain IIIB) (UniProt P04578); assay: cell-based or functional assay
# RSV = conditions: RSV-infected and uninfected Hep-2 cells; cited from earlier work
# HPIV-3 = conditions: HPIV-3-infected Hep2 cells and uninfected CV-1W cells; cited from earlier work
# [2] = system: NL4-3 with DIV (G36D) mutation in gp41; conditions: NL4-3, in vitro; cited from earlier work
# [3] = HIV-1 IIIB in PHA-stimulated PBMCs, 7 days
molecule,measurement,setting,value
Cc1cn([C@H]2C[C@H](N=[N+]=[N-])[C@@H](CO)O2)c(=O)[nH]c1=O [AZT],IC50,HIV-1 IIIB; [3],2.9 nM
same,IC90,HIV-1 IIIB; [3],26.9 nM
same,Selectivity Index,HIV-1 IIIB; from TC50 (MTS) and IC50 in PBMCs,>346
C34 peptide,"IC50 (50% inhibition of virus replication), HIV-1 IIIB in PBMC",[1],0.6 nM
IALLSTNKAVVSLSNGVSVLTSKVLDLKNYIDK [SEQ ID NO:24],Concentration inhibiting fusion and syncytia formation,RSV,less than 50 μg/ml
NSVALDPIDISIELNKAKSDLEESKEWIRRSNQKL [SEQ ID NO:27],Concentration inhibiting fusion and syncytia formation,HPIV-3,less than 1 μg/ml
"T-20 (DP-178, enfuvirtide, Fuzeon) (peptide)","IC50 (50% inhibition of virus replication), HIV-1 IIIB in PBMC",[1],2.2 nM
same,"IC90 (90% inhibition of virus replication), HIV-1 IIIB in PBMC",[1],9.5 nM
enfuvirtide,Resistance conferred by the DIV (G36D) mutation in gp41,[2],8 fold
